# Results from article PMC11008251, “Distribution of 2,2′,5,5′-Tetrachlorobiphenyl (PCB52) Metabolites in Adolescent Rats after Acute Nose-Only Inhalation Exposure” (Environmental Science & Technology, 2024).
# Experiment: Body and organ weights after PCB52 nose-only inhalation
# Type: in vivo, Sprague–Dawley rats
# Conditions: for Relative Organ Weights, Brain / Relative Organ Weights, Kidneys / Relative Organ Weights, Liver / Relative Organ Weights, Lung / Relative Organ Weights, Ovaries / Relative Organ Weights, Spleen / Relative Organ Weights, Thymus / Relative Organ Weights, Testies: mean (standard deviation); for Adrenal Glands weight / Body Weight Post Exposure / Kidneys weight / Liver weight / Lung weight / Reproductive organ weight / Spleen weight / Thymus weight: n=6
# Experimental: The Institutional Animal Care and Use Committee of the University of Iowa approved all of the animal protocols. Animals were housed in a temperature- and humidity-controlled room (21 °C, 55% relative humidity) with a 12 h light/dark cycle in an Association for the Assessment and Accreditation of Laboratory Animal Care (AAALAC) accredited animal facility. Animals were provided with food (sterile Teklad 5% stock diet, Harlan, Madison, WI) and water ad libitum throughout the study. Thirty-six male and female Sprague–Dawley rats (7 weeks of age; Charles River, Wilmington, MA) were allowed to acclimate to the animal facility for 8 days after arrival. Prior to exposure, rats (227 ± 27 and 197 ± 13 g, male and female, respectively) were randomly assigned to the exposure groups (n = 6 per group) using a random number generated (Excel, version 2307). Animals were simultaneously exposed for 4 h to a low or high concentration of PCB52-laden per sex) or filtered lab air (Figure 1A). Exposure duration was limited to 4 h along with scheduled training days (30 min at 55 days of age and 2 h at 56 days of age) to acclimate animals and minimize stress. […] Animal exposure occurred for 4 h at 57 days of age. Rats are considered adolescents at this age.[38] Serum was collected immediately after the animals were removed from the nose-only apparatus by cardiac puncture under isoflurane anesthesia. Rats were perfused with saline, and organs were excised and stored at −80 °C. Body and organ weights, including brain, lungs, and thymus, were not altered by PCB52 inhalation regardless of sex or exposure (Tables S2 and S3).
compound,measurement,setting,value
"Clc1ccc(Cl)c(-c2cc(Cl)ccc2Cl)c1 [PCB52, 2,2′,5,5′-tetrachlorobiphenyl]","Relative Organ Weights, Brain","Females, High",0.010 (0.001) g/g BW
same,"Relative Organ Weights, Kidneys","Females, High",0.009 (0.001) g/g BW
same,"Relative Organ Weights, Liver","Females, High",0.042 (0.003) g/g BW
same,"Relative Organ Weights, Lung","Females, High",0.006 (0.001) g/g BW
same,"Relative Organ Weights, Ovaries","Females, High",0.003 (0.001) g/g BW
same,"Relative Organ Weights, Spleen","Females, High",0.002 (0.001) g/g BW
same,"Relative Organ Weights, Thymus","Females, High",0.003 (0.001) g/g BW
same,"Relative Organ Weights, Brain","Females, Low",0.010 (0.001) g/g BW
same,"Relative Organ Weights, Kidneys","Females, Low",0.009 (0.001) g/g BW
same,"Relative Organ Weights, Liver","Females, Low",0.044 (0.002) g/g BW
same,"Relative Organ Weights, Lung","Females, Low",0.007 (0.001) g/g BW
same,"Relative Organ Weights, Ovaries","Females, Low",0.003 (0.001) g/g BW
same,"Relative Organ Weights, Spleen","Females, Low",0.003 (0.001) g/g BW
same,"Relative Organ Weights, Thymus","Females, Low",0.003 (0.001) g/g BW
same,Adrenal Glands weight,"High exposure group, female",0.06 grams
same,Body Weight Post Exposure,"High exposure group, female",196.92 ± 9.39 grams
same,Kidneys weight,"High exposure group, female",1.85 grams
same,Liver weight,"High exposure group, female",8.29 grams
same,Lung weight,"High exposure group, female",1.23 grams
same,Reproductive organ weight,"High exposure group, female",0.59 ± 0.16 grams
same,Spleen weight,"High exposure group, female",0.44 grams
same,Thymus weight,"High exposure group, female",0.58 ± 0.06 grams
same,Adrenal Glands weight,"High exposure group, male",0.03 grams
same,Body Weight Post Exposure,"High exposure group, male",192.17 ± 22.01 grams
same,Kidneys weight,"High exposure group, male",1.73 grams
same,Liver weight,"High exposure group, male",9.28 grams
same,Lung weight,"High exposure group, male",1.52 grams
same,Reproductive organ weight,"High exposure group, male",1.82 ± 0.52 grams
same,Spleen weight,"High exposure group, male",0.53 grams
same,Thymus weight,"High exposure group, male",0.56 ± 0.05 grams
same,Adrenal Glands weight,"Low exposure group, female",0.04 grams
same,Body Weight Post Exposure,"Low exposure group, female",183.46 ± 14.31 grams
same,Kidneys weight,"Low exposure group, female",1.70 grams
same,Liver weight,"Low exposure group, female",8.11 grams
same,Lung weight,"Low exposure group, female",1.24 grams
same,Reproductive organ weight,"Low exposure group, female",0.55 ± 0.10 grams
same,Spleen weight,"Low exposure group, female",0.47 grams
same,Thymus weight,"Low exposure group, female",0.61 ± 0.12 grams
same,Adrenal Glands weight,"Low exposure group, male",0.04 grams
same,Body Weight Post Exposure,"Low exposure group, male",228.20 ± 14.09 grams
same,Kidneys weight,"Low exposure group, male",1.99 grams
same,Liver weight,"Low exposure group, male",10.31 grams
same,Lung weight,"Low exposure group, male",1.48 grams
same,Reproductive organ weight,"Low exposure group, male",2.51 ± 0.14 grams
same,Spleen weight,"Low exposure group, male",0.59 grams
same,Thymus weight,"Low exposure group, male",0.70 ± 0.15 grams
same,"Relative Organ Weights, Brain","Males, High",0.010 (0.001) g/g BW
same,"Relative Organ Weights, Kidneys","Males, High",0.009 (0.001) g/g BW
same,"Relative Organ Weights, Liver","Males, High",0.048 (0.003) g/g BW
same,"Relative Organ Weights, Lung","Males, High",0.008 (0.002) g/g BW
same,"Relative Organ Weights, Spleen","Males, High",0.003 (0.001) g/g BW
same,"Relative Organ Weights, Testies","Males, High",0.009 (0.002) g/g BW
same,"Relative Organ Weights, Thymus","Males, High",0.003 (0.001) g/g BW
same,"Relative Organ Weights, Brain","Males, Low",0.008 (0.001) g/g BW
same,"Relative Organ Weights, Kidneys","Males, Low",0.009 (0.001) g/g BW
same,"Relative Organ Weights, Liver","Males, Low",0.045 (0.002) g/g BW
same,"Relative Organ Weights, Lung","Males, Low",0.007 (0.002) g/g BW
same,"Relative Organ Weights, Spleen","Males, Low",0.003 (0.001) g/g BW
same,"Relative Organ Weights, Testies","Males, Low",0.011 (0.001) g/g BW
same,"Relative Organ Weights, Thymus","Males, Low",0.003 (0.001) g/g BW
same,"Body and organ weights, including brain, lungs, and thymus",regardless of sex or exposure,not altered
